Reference: patent US20030229140A1, “Herbal molecule as potential anti-leukemic drug” (priority 2002, published 2003)
Like-named read-outs stand apart in the source and are kept apart here.

Experiments:
[1] = tested on: Erythroleukemic cell line (K562); experiment: Incubation of CD33- erythroleukemic cell line K562 with CA/PCQ, viable cell count; format: cell-based
Description: This cell line was collected from American Type Culture Collection (ATCC), VA, USA. This cell line is […]. […] Cells were then washed and counted for viability.

CML patient's PBMC = experiment: Incubation of CML patient's PBMC (leukemic cells) with CA/PCQ, viable cell count; format: cell-based, human
Experimental: Whole blood (10 ml each) was drawn from previously diagnosed myeloid leukemic patients, one patient was diagnosed as AML and the other one was diagnosed as CML. Mononuclear cells were separated by Ficoll/hypaque density gradient centrifugation. […] Cells were then washed and counted for viability.

[2] = tested on: Molt 4 (T lymphoid cell line); experiment: Growth inhibition of T-lymphoid cell line Molt-4 by CA; format: cell-based
Description: Culture of T-Lymphoid cell line Molt-4. This cell line was obtained from American Type culture collection (ATCC), VA, USA and grown in vitro as described for the cell line K562.

[3] = tested on: CML patient's leukemic cells; experiment: Analysis of cell cycle progression and apoptosis by flow cytometry; format: cell-based, human
Experimental: Analysis of cell cycle progression and apoptosis by Flow cytometry PBMC of a CML patient was cultured in RPMI-1640 medium supplemented with 10% […] fetal bovine serum in the presence or absence of CA (100.0 μg/ml) for 48 hr. at 37° C. in 5% CO2. Cells were fixed with 40% ethanol treated with 500 μg/ml Rnase A, and then with 69 μM propidium iodide for analysis of DNA content by Flow Cytometry as described (Mitra et al., Molecular Medicine, 6:527-541, 2000).

Normal PBMC = experiment: Growth inhibition of normal individuals' PBMC by CA/PCQ; format: cell-based, human; details: Homo sapiens; for inhibition at 50 µg/mL: 50.0 μg/ml; for inhibition at 100 µg/mL: 100.0 μg/ml
Description: Preparation of peripheral blood mononuclear cells (PBMC) from normal individuals. Whole blood was collected and mononuclear cells were separated by Ficoll/Hypaque density gradient centrifugation.

leukemic cells = experiment: Biological activity (destruction of leukemic cells) of Piper betel fractions and HPLC peaks; format: cell-based; details: fractions, zones and HPLC peaks of Piper betel leaf extract
Experimental: Collected material was examined for biological activity i.e. destruction of leukemic cells. […] 10 gm of above-mentioned material was loaded on Sephadex LH-20 column and chromatographed with water, water-methanol (1:1) and methanol as eluent. Three different fractions thus obtained from three different solvent systems were separately checked for biological activity. […] The column was equilibrated with methanol-water-acetic acid (23:76:1), flow rate was maintained at 1.0 ml per min and peaks were identified at 280 nm. According to the retention time (RE) different peaks could be divided into three zones, ZA/ZB and ZC (FIG. 1). ZA had 4 major peaks whereas ZB had very small to moderate 10 peaks and ZC had two distinct peaks. It was convenient to observe biological activity of three zones AA, ZB and ZC, which were separately tested on leukemia cells for destructive activity.

AML patient's PBMC = experiment: Incubation of AML patient's PBMC with CA, viable cell count; format: cell-based, human
Experimental: Whole blood (10 ml each) was drawn from previously diagnosed myeloid leukemic patients, one patient was diagnosed as AML and the other one was diagnosed as CML. Mononuclear cells were separated by Ficoll/hypaque density gradient centrifugation. PBMC (1×10^5-2×10^6/ml) of myeloid leukemia patients were incubated with varied concentrations of CA for 48 hours at 37° C. in 5% CO2. Cells were then washed and counted for viability.

[4] = CML patient's leukemic cells, CA 100.0 μg/ml, 2 days
[5] = 24 h, Normal PBMC, 1 day, 1 × 10^5 cells per ml per well, read-out: Percentage inhibition of Cell Growth
[6] = 48 h, Normal PBMC, 2 days, 1 × 10^5 cells per ml per well, read-out: Percentage inhibition of Cell Growth
[7] = 72 h, Normal PBMC, 3 days, 1 × 10^5 cells per ml per well, read-out: Percentage inhibition of Cell Growth

O=C(/C=C/c1ccc(O)c(O)c1)O[C@@H]1C[C@](O)(C(=O)O)C[C@@H](O)[C@H]1O (single isomer, unassigned) [CA, chlorogenic acid or 3-Caffeoyl quinic acid]
inhibition at 25 µg/mL ([1]; Homo sapiens, K562, 2×10^6/ml/well, 25 μg/ml, read-out: growth inhibition of leukemic cell lines): ≤ 20% | destruction of cells (in words) ([1]; K562): destroyed | growth inhibition of leukemic cell lines (CML patient's PBMC; CML leukemic cells, 2×10^6/ml/well, 25 μg/ml of CA): up to 2.38 | destruction of cells (in words) (CML patient's PBMC; CML patient's leukemic cells): destroyed | inhibition at 50 µg/mL (CML patient's PBMC; Homo sapiens, 24 h, CML patient's PBMC, 50.0 μg/ml, 1 day, 1 × 10^5 cells per ml per well, read-out: Percentage inhibition of Cell Growth): 4.76% | inhibition at 100 µg/mL (CML patient's PBMC; Homo sapiens, 24 h, CML patient's PBMC, 100.0 μg/ml, 1 day, 1 × 10^5 cells per ml per well, read-out: Percentage inhibition of Cell Growth): 9.52% | inhibition at 50 µg/mL (CML patient's PBMC; Homo sapiens, 48 h, CML patient's PBMC, 50.0 μg/ml, 2 days, 1 × 10^5 cells per ml per well, read-out: Percentage inhibition of Cell Growth): 22.2% | inhibition at 100 µg/mL (CML patient's PBMC; Homo sapiens, 48 h, CML patient's PBMC, 100.0 μg/ml, 2 days, 1 × 10^5 cells per ml per well, read-out: Percentage inhibition of Cell Growth): 45% | inhibition at 50 µg/mL (CML patient's PBMC; Homo sapiens, 72 h, CML patient's PBMC, 50.0 μg/ml, 3 days, 1 × 10^5 cells per ml per well, read-out: Percentage inhibition of Cell Growth): 30% | inhibition at 100 µg/mL (CML patient's PBMC; Homo sapiens, 72 h, CML patient's PBMC, 100.0 μg/ml, 3 days, 1 × 10^5 cells per ml per well, read-out: Percentage inhibition of Cell Growth): 55.6% | inhibition at 25 µg/mL (CML patient's PBMC; Homo sapiens, PBMC, 72 h, CML patient's leukemic cells, 25.0 μg/ml, 3 days, 2×10^5 cells per ml per well, read-out: % Inhibition of cell growth (After 3 days of incubation)): 2.38% | inhibition at 50 µg/mL (CML patient's PBMC; Homo sapiens, PBMC, 72 h, CML patient's leukemic cells, 50.0 μg/ml, 3 days, 2×10^5 cells per ml per well, read-out: % Inhibition of cell growth (After 3 days of incubation)): 4.67% | inhibition at 20 µg/mL (CML patient's PBMC; Homo sapiens, CML patient's PBMC, 20 μg/ml, 48 hr, 1 × 10^5 cells/ml/well, read-out: Percent inhibition of cell growth after 48 hr of incubation): 5.8% | inhibition at 50 µg/mL (CML patient's PBMC; Homo sapiens, CML patient's PBMC, 50 μg/ml, 48 hr, 1 × 10^5 cells/ml/well, read-out: Percent inhibition of cell growth after 48 hr of incubation): 10.3% | inhibition at 100 µg/mL (CML patient's PBMC; Homo sapiens, CML patient's PBMC, 100 μg/ml, 48 hr, 1 × 10^5 cells/ml/well, read-out: Percent inhibition of cell growth after 48 hr of incubation): 22.5% | inhibition at 500 µg/mL (CML patient's PBMC; Homo sapiens, CML patient's PBMC, 500 μg/ml, 48 hr, 1 × 10^5 cells/ml/well, read-out: Percent inhibition of cell growth after 48 hr of incubation): 32.3% | destruction of cells (in words) [2]: requires higher dose | apoptosis by cell-cycle analysis (in words) ([3]; 100.0 μg/ml, two days of culture): caused apoptosis | percentage of cells in (>2n DNA) [3, 4]: 56.35% | percentage of cells in G0/G1 (2n DNA) [3, 4]: 33.13% | percentage of cells in Sub G0/G1 (apoptotic 2n DNA) [3, 4]: 10.64% | inhibition at 50 µg/mL (Normal PBMC; [5]): 6.66% | inhibition at 100 µg/mL (Normal PBMC; [5]): 6.66% | inhibition at 50 µg/mL (Normal PBMC; [6]): 10.3% | inhibition at 100 µg/mL (Normal PBMC; [6]): 17.2% | inhibition at 50 µg/mL (Normal PBMC; [7]): 15.2% | inhibition at 100 µg/mL (Normal PBMC; [7]): 19.5% | inhibition at 25 µg/mL (Normal PBMC; 72 h, Normal individual's PBMC, 25.0 μg/ml, 3 days, 2×10^5 cells per ml per well, read-out: % Inhibition of cell growth (After 3 days of incubation)): 1.03% | inhibition at 50 µg/mL (Normal PBMC; 72 h, Normal individual's PBMC, 3 days, 2×10^5 cells per ml per well, read-out: % Inhibition of cell growth (After 3 days of incubation)): 1.03% | biological activity i.e. destruction of leukemic cells (in words) (leukemic cells): Except peak no 6 (Rt 9.16 min) no other peaks had shown detectable activity | inhibition at 20 µg/mL (AML patient's PBMC; Homo sapiens, AML patient's PBMC, 20 μg/ml, 48 hr, 1 × 10^5 cells/ml/well, read-out: Percent inhibition of cell growth after 48 hr of incubation): 9.5% | inhibition at 50 µg/mL (AML patient's PBMC; Homo sapiens, AML patient's PBMC, 50 μg/ml, 48 hr, 1 × 10^5 cells/ml/well, read-out: Percent inhibition of cell growth after 48 hr of incubation): 16.6% | inhibition at 100 µg/mL (AML patient's PBMC; Homo sapiens, AML patient's PBMC, 100 μg/ml, 48 hr, 1 × 10^5 cells/ml/well, read-out: Percent inhibition of cell growth after 48 hr of incubation): 73.8% | inhibition at 500 µg/mL (AML patient's PBMC; Homo sapiens, AML patient's PBMC, 500 μg/ml, 48 hr, 1 × 10^5 cells/ml/well, read-out: Percent inhibition of cell growth after 48 hr of incubation): 85.7% | destruction of cells (in words) (AML patient's PBMC; PBMC of myeloid leukemia patients (AML)): destroyed
